Laboratory results: patent US5093359A, “Primycin components and process for the separation of the antibiotic complex” (priority 1984, dated 1992)
≈ marks a conversion by molar mass, not a printed value.

Legend:
[1] = tested on: Staphylococcus aureus CCM.885.; assay: MIC, strain 1; assay type: cell-based
[2] = tested on: Staphylococcus aureus DSM.20231; assay: MIC, strain 2; assay type: cell-based; conditions: Staphylococcus aureus
[3] = tested on: Staphylococcus aureus CCM.2317.; assay: MIC, strain 3; assay type: cell-based
[4] = tested on: Staphylococcus aureus CCM.2326.; assay: MIC, strain 4; assay type: cell-based
[5] = tested on: Staphylococcus aureus CCM.2514; assay: MIC, strain 5; assay type: cell-based
[6] = tested on: Staphylococcus aureus CCM.2515.; assay: MIC, strain 6; assay type: cell-based
[7] = tested on: Staphylococcus epidermidis CCM.2271; assay: MIC, strain 7; assay type: cell-based
[8] = tested on: Staphylococcus aureus Smith; assay: MIC, strain 8; assay type: cell-based
[9] = tested on: Streptococcus faecalis CCM.1875.; assay: MIC, strain 9; assay type: cell-based; conditions: Enterococcus faecalis
[10] = tested on: Streptococcus agalactiae CCM.5153.; assay: MIC, strain 10; assay type: cell-based
[11] = tested on: Streptococcus agalactiae CCM.5534.; assay: MIC, strain 11; assay type: cell-based; conditions: Streptococcus agalactiae, CCM.5534.
[12] = tested on: Streptococcus disgalactiae ATTC.9926; assay: MIC, strain 12; assay type: cell-based
[13] = tested on: Bacillus subtilis ATTC.6633.; assay: MIC, strain 13; assay type: cell-based
[14] = tested on: Bacillus cereus CCM.2010.; assay: MIC, strain 14; assay type: cell-based
[15] = tested on: Bacillus licheniformis CCM.2182.; assay: MIC, strain 15; assay type: cell-based
[16] = tested on: Bacillus licheniformis CCM.2205.; assay: MIC, strain 16; assay type: cell-based
[17] = tested on: Bacillus subtilis CCM.1718.; assay: MIC, strain 17; assay type: cell-based
[18] = tested on: Listeria monocytogenes CCM.5576.; assay: MIC, strain 18; assay type: cell-based
[19] = tested on: Micrococcus flavus ATCC.10240.; assay: MIC, strain 19; assay type: cell-based
[20] = tested on: Micrococcus luteus DSM.20030.; assay: MIC, strain 20; assay type: cell-based
[21] = tested on: Sporosarcina ureae DSM.317; assay: MIC, strain 21; conditions: DSM.317, 24 h
Method: (§1) The antimicrobial activity of the primycin complex and the components thereof is tested on different microorganism strains.
(§2) (Inoculation: 5 × 10^5 /ml, incubation at 37 C.° for

[22] = tested on: Pseudomonas aeruginosa CCM.1960.; assay: MIC, strain 22; conditions: 24 h
Method: as §1, §2

[23] = tested on: Pseudomonas fluorescens CCM.2115.; assay: MIC, strain 23; conditions: 24 h
Method: as §1, §2

[24] = tested on: Pseudomonas acidoverans CCM.283; assay: MIC, strain 24; conditions: CCM.283, 24 h
Method: as §1, §2

[25] = tested on: Proteus vulgaris CCM.1799.; assay: MIC, strain 25; conditions: 24 h
Method: as §1, §2

[26] = tested on: Shigella sonnei CCM.1373.; assay: MIC, strain 26; conditions: 24 h
Method: (§3) The table contains the MIC values (/μg/ml) measured on human pathogenic polyresistant strains.
as §1, §2

[27] = tested on: Salmonella typhimurium CCM.5445.; assay: MIC, strain 27; conditions: Salmonella enterica, 24 h
Method: as §3, §1, §2

[28] = tested on: Escherichia coli DSM.30038.; assay: MIC, strain 28; conditions: 24 h
Method: as §3, §1, §2

CCCCC1C(=O)OC(C(C)C(O)CCCNC(=N)N)C(C)C=C(C)CCCCC(O)CC(O)CC(O)CC(O)CC(O)C(OC2OC(CO)C(O)C2O)C=C(C)C(O)CCCC(O)CCCC(O)CCC(C)C1O (stereo not drawn) [A1, chinopricin]
MIC ([1]; 24 h): 0.25 µg/mL (≈ 0.232 µM)
MIC ([1]; 25 h): 0.25 µg/mL (≈ 0.232 µM)
MIC ([2]; DSM.20231, 24 h): 0.05 µg/mL (≈ 0.0464 µM)
MIC ([2]; DSM.20231, 25 h): 0.05 µg/mL (≈ 0.0464 µM)
MIC ([3]; 24 h): 0.25 µg/mL (≈ 0.232 µM)
MIC ([3]; 25 h): 0.25 µg/mL (≈ 0.232 µM)
MIC ([4]; 24 h): 0.25 µg/mL (≈ 0.232 µM)
MIC ([4]; 25 h): 0.25 µg/mL (≈ 0.232 µM)
MIC ([5]; CCM.2514, 24 h): 0.25 µg/mL (≈ 0.232 µM)
MIC ([5]; CCM.2514, 25 h): 0.25 µg/mL (≈ 0.232 µM)
MIC ([6]; 24 h): 0.25 µg/mL (≈ 0.232 µM)
MIC ([6]; 25 h): 0.25 µg/mL (≈ 0.232 µM)
MIC ([7]; CCM.2271, 24 h): 0.75 µg/mL (≈ 0.695 µM)
MIC ([7]; CCM.2271, 25 h): 0.75 µg/mL (≈ 0.695 µM)
MIC ([8]; 24 h): 0.25 µg/mL (≈ 0.232 µM)
MIC ([8]; 25 h): 0.25 µg/mL (≈ 0.232 µM)
MIC ([9]; 24 h): 2.5 µg/mL (≈ 2.32 µM)
MIC ([9]; 25 h): 2.5 µg/mL (≈ 2.32 µM)
MIC ([10]; 24 h): 0.75 µg/mL (≈ 0.695 µM)
MIC ([10]; 25 h): 0.75 µg/mL (≈ 0.695 µM)
MIC ([11]; 24 h): 1 µg/mL (≈ 0.927 µM)
MIC ([11]; 25 h): 1 µg/mL (≈ 0.927 µM)
MIC ([12]; ATTC.9926, 24 h, strain 12, Table O, 24 hours): 2.5 µg/mL (≈ 2.32 µM)
MIC ([12]; ATTC.9926, 25 h, strain 12, Tables I-XIII, 25 hours): 2.5 µg/mL (≈ 2.32 µM)
MIC ([13]; 24 h): 0.25 µg/mL (≈ 0.232 µM)
MIC ([13]; 25 h): 0.25 µg/mL (≈ 0.232 µM)
MIC ([14]; 24 h): 0.25 µg/mL (≈ 0.232 µM)
MIC ([14]; 25 h): 0.25 µg/mL (≈ 0.232 µM)
MIC ([15]; 24 h): 0.25 µg/mL (≈ 0.232 µM)
MIC ([15]; 25 h): 0.25 µg/mL (≈ 0.232 µM)
MIC ([16]; 24 h): 0.25 µg/mL (≈ 0.232 µM)
MIC ([16]; 25 h): 0.25 µg/mL (≈ 0.232 µM)
MIC ([17]; 24 h): 0.25 µg/mL (≈ 0.232 µM)
MIC ([17]; 25 h): 0.25 µg/mL (≈ 0.232 µM)
MIC ([18]; 24 h): 0.5 µg/mL (≈ 0.464 µM)
MIC ([18]; 25 h): 0.5 µg/mL (≈ 0.464 µM)
MIC ([19]; 24 h): 0.075 µg/mL (≈ 0.0695 µM)
MIC ([19]; 25 h): 0.075 µg/mL (≈ 0.0695 µM)
MIC ([20]; 24 h): 0.05 µg/mL (≈ 0.0464 µM)
MIC ([20]; 25 h): 0.05 µg/mL (≈ 0.0464 µM)
MIC [21]: 0.025 µg/mL (≈ 0.0232 µM)
MIC [22]: 25 µg/mL (≈ 23.2 µM)
MIC [23]: 25 µg/mL (≈ 23.2 µM)
MIC [24]: 25 µg/mL (≈ 23.2 µM)
MIC [25]: 50 µg/mL (≈ 46.4 µM)
MIC [26]: 50 µg/mL (≈ 46.4 µM)
MIC [27]: 50 µg/mL (≈ 46.4 µM)
MIC [28]: 50 µg/mL (≈ 46.4 µM)
